Assay results published in patent US7772255B2, “Method of treating tumors with azaxanthones” (Supratek Pharma, Inc., priority 2005, dated 2010).

Tested on: CSML100 cells
Experiment: CSML100 (murine mammary carcinoma) experimental metastasis model (Example 24)
Type: in vivo, mouse
Details: 100 mg/kg/day i.v., 10 daily injections
Protocol: Amlexanox solution for injections was prepared according to the Example 4. CSML100 cells were inoculated intravenously in 26 female A/J mice (6-7 weeks old). Animals were then divided randomly into two groups: 1) untreated control (n=16, saline) and 2) Amlexanox treated (n=10, 100 mg/kg/day, i.v.; 10 daily injections). The control group received i.v. injections with 5 ml/kg (volume/body weight) of saline, while Amlexanox was administrated intravenously daily with a dose of 100 mg/kg in a volume of 5 ml/kg. Treatment was started on the day following the day of tumor cell implantation and continued for 10 consecutive days. The animal body weight was recorded as an index of treatment toxicity during the experiment. From the day 10 after cell implantation, one animal in the control group was sacrificed every day to monitor the metastasis development. All remaining animals were sacrificed on the day 18 for routine metastasis inspection. Although all organs were routinely screened, metastatic formation was only found in the lungs. The metastatic colonies on the organ surface were enumerated immediately following the removal of the organ.
A maximum body weight loss in treated group was less than 10%. The data are expressed as mean±SEM for the number of metastatic sites on the lung surface.

CC(C)c1ccc2oc3nc(N)c(C(=O)O)cc3c(=O)c2c1 [Amlexanox, 2-amino-7-isopropyl-1-azaxanthone-3-carboxylic acid]
Average of lung metastasis number per animal (sample number) (CSML100 cells i.v. in female A/J mice, day 18, mean±SEM): 18.8 ± 2.3 (9)
Treated/control × 100% (lung metastasis number, day 18): 48.5%
maximum body weight loss (treated group, A/J mice): less than 10%
